# Source: ChEMBL document CHEMBL1201862, “PubChem BioAssay data set” (2004)
# Calls of active or inactive are those of the source.
# Experiments:
# Aspartyl aminopeptidase = target: T1, Aspartyl aminopeptidase (Plasmodium falciparum 3D7, UniProt Q8I2J3)
# T1 sequence (Q8I2J3 whole entry): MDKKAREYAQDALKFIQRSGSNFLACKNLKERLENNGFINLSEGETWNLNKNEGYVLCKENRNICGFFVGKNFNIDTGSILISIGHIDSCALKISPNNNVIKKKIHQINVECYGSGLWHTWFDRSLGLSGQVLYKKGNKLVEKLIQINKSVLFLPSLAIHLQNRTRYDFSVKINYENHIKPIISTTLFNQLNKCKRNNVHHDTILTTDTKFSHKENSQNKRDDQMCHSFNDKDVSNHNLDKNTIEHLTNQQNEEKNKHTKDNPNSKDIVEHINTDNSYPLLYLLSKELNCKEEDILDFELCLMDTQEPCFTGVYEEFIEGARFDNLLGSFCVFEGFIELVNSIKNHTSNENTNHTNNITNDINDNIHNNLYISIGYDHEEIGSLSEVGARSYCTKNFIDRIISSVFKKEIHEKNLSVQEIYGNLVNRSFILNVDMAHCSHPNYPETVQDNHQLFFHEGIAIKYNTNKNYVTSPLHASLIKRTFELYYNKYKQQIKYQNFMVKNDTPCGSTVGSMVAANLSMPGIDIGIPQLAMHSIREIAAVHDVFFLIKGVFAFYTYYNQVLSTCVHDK
# Cytochrome P450 3A4 = Cytochrome P450 3A4 (Homo sapiens, UniProt P08684);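 note: CYP3A4 tested as one member of a cytochrome P450 panel screen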
# Cytochrome P450 2C19 = Cytochrome P450 2C19 (Homo sapiens, UniProt P33261); assay: Cytochrome panel assay with activity outcomes. Panel member name: p450-cyp2c19 Compounds with AC50 equal or less than 10 uM are considered active; format: functional; settings: read-out: AC50
# Procathepsin L = Procathepsin L (Homo sapiens, UniProt P07711)
# [1] = viability loss of HPDE-C7K cells – cell-based, fluorescence, HTS, primary screen (AID 431); format: functional; settings: Homo sapiens
# [2] = HPDE-C7 pancreatic duct cell viability loss – fluorescence, HTS (AID 430); format: functional, cell-based; settings: Homo sapiens
# [3] = target: T2, Microphthalmia-associated transcription factor (Homo sapiens, UniProt O75030); assay: reducers of TRPM1 reporter luminescence, concentration series – cell-based, SK-MEL-5, cherry-picked, set 3, MITF inhibitor project, dose response (AID 493073); format: functional;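 note: SK-MEL-5 melanoma cells with luciferase driven by the MITF target TRPM1 promoter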
# T2 sequence (O75030 whole entry): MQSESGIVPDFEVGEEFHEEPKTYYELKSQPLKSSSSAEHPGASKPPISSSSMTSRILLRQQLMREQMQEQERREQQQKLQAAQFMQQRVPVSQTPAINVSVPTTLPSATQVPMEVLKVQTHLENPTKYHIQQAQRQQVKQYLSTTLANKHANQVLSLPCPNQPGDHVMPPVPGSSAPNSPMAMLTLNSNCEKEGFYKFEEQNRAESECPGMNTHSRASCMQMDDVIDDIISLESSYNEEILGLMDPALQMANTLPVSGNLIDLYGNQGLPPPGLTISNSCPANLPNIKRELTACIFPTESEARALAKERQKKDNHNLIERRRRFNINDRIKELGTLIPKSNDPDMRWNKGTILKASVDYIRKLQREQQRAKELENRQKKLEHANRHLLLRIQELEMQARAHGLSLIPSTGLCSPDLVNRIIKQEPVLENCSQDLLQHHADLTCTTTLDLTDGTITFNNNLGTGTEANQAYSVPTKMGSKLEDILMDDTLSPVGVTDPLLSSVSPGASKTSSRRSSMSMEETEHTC
# [4] = HEK-293T cell viability reduction – luminescence, B-cell screen hits, cytotoxicity control for BCR NF-kB inhibitor project, dose response (AID 489021); format: functional, cell-based;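 note: HEK-293T cells carrying an NF-kB luciferase reporter; cells exposed to compound for about 14 hours before viability readout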
# [5] = luciferase reporter signal suppression in cells – H4 neuroglioma cells, luminescence, dose response (AID 1990); format: functional, cell-based
# [6] = Luminescence Cell-Based Dose Response HTS to Identify Inhibitors of 5'UTR Stem-Loop Driven Prion Protein mRNA Translation in H4 Neuroglioblastoma Cells. [Related pubchem assays: 1827 (Project Summary), 1813 (Primary HTS)]; format: functional
# [7] = DRD fibroblast viability loss – cell-based, non-viral oncogenic, luminescence, dose response (AID 1934); format: functional; settings: Homo sapiens
# BJ [8] = assay: BJ-TERT fibroblast viability loss – cell-based, RAS-independent, luminescence, dose response (AID 1933); format: functional; settings: Homo sapiens
# BJ [9] = assay: cells; format: functional, cell-based; settings: Homo sapiens
# BJ [10] = assay: growth inhibition of engineered Ras-driven BJ cells – cell-based, alamar blue fluorescence, cherrypicked samples, dose response (AID 2631); format: functional; settings: Homo sapiens;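 note: confirmatory dose-response assay in RAS-dependent BJ fibroblasts engineered with TERT, LT and ST, with cytotoxicity read by fluorescence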
# [11] = target: T3, Zinc finger protein mex-5 (Caenorhabditis elegans, UniProt Q9XUB2); assay: potency of MEX-5 RNA-binding blockers – biochemical, C. elegans, fluorescence polarization, dose response (AID 1960)
# T3 sequence (Q9XUB2 whole entry): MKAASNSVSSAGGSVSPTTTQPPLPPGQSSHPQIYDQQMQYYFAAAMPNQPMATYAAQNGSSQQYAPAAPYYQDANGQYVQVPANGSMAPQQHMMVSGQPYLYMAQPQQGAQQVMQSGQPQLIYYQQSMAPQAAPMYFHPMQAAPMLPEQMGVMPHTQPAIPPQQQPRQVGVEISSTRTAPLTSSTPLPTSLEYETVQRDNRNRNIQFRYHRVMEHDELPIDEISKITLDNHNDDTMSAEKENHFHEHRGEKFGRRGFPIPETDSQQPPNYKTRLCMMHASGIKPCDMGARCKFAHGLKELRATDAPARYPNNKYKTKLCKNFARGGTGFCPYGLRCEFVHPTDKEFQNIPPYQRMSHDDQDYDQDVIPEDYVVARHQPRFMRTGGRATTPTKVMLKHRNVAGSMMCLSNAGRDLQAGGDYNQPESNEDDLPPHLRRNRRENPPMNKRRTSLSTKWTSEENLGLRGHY
# [12] = target: T4, RNA-binding protein pos-1 (Caenorhabditis elegans, UniProt G5EF15); assay: disruptors of C. elegans POS-1 RNA interaction – biochemical, fluorescence polarization, dose response (AID 1964);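 note: purified POS-1 fused to maltose binding protein made in E. coli; potency of compounds blocking POS-1 binding to fluorescent RNA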
# T4 sequence (G5EF15 whole entry): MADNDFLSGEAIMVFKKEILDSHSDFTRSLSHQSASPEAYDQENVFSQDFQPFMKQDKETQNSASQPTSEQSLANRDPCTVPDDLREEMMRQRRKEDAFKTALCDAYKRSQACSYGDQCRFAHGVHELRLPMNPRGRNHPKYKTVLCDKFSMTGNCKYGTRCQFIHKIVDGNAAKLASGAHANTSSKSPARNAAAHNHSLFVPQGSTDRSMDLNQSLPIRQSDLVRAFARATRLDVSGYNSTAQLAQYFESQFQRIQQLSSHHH
# BJ [13] = assay: BJ-TERT-LT-ST fibroblast viability loss – cell-based, RAS-independent, luminescence, dose response (AID 1935); format: functional; settings: Homo sapiens;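 note: BJ fibroblasts immortalized with TERT plus LT and ST oncogenes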
# Cytochrome P450 2C19, sequence (P33261 whole entry): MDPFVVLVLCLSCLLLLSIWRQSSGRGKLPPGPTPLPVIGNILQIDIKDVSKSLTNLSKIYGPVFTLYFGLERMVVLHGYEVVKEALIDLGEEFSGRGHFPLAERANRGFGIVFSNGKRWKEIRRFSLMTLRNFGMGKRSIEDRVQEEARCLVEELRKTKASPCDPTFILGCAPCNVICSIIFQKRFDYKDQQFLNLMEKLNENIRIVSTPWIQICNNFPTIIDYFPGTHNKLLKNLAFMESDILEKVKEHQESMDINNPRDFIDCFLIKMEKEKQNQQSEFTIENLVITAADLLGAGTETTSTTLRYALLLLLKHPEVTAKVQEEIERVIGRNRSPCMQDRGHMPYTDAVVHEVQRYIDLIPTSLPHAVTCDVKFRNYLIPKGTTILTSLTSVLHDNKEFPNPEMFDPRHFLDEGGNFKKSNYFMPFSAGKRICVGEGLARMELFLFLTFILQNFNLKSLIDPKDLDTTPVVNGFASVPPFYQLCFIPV
# Procathepsin L, sequence (P07711 whole entry): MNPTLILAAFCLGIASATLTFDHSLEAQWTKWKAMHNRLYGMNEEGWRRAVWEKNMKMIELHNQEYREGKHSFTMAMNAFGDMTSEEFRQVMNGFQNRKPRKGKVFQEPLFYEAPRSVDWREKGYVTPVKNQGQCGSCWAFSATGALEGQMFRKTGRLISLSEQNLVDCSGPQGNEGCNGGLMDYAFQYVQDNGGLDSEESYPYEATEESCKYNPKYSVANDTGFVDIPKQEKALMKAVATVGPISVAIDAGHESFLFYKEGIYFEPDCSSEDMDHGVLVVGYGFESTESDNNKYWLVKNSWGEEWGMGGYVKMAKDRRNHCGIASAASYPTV
# Cytochrome P450 3A4, sequence (P08684 whole entry): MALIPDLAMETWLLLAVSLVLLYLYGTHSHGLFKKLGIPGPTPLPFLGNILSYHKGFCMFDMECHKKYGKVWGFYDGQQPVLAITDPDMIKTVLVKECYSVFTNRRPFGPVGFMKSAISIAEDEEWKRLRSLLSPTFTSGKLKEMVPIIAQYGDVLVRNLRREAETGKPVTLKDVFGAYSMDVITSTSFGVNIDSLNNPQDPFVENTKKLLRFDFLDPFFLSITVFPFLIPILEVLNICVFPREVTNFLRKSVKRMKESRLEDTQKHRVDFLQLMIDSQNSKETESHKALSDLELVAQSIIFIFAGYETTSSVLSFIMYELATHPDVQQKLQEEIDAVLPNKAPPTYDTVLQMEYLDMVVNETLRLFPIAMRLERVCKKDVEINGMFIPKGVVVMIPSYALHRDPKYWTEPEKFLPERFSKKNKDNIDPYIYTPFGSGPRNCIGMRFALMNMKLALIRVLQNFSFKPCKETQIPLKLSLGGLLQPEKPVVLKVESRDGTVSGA
structure (smiles),measurement,setting,value
Cc1ccc(N2C(=O)/C(=C/Nn3cnnc3)c3ccccc3C2=O)cc1,IC50,Aspartyl aminopeptidase,1.67 µM (active)
same,AC50,Cytochrome P450 3A4,15.8 µM (inconclusive)
same,AC50,Cytochrome P450 2C19,10 µM (inconclusive)
same,IC50,Procathepsin L,> 59.6 µM (not active)
Cc1[nH]c2ccccc2c1C(O)CN1CCN(c2cccc(C(F)(F)F)c2)CC1 (stereo not drawn),EC50,[1],6.67 µM (active)
same,EC50,[2],7.14 µM (active)
COc1cc2c(cc1O)C(SC)=NC(C)(C)C2,EC50,[1],13.6 µM (active)
same,AC50,[3],11.3 µM (active)
same,EC50,[2],14.1 µM (active)
Cc1ccc(-c2nn3c(C)nnc3c3ccccc23)cc1S(=O)(=O)N1CCN(CCO)CC1,IC50,[4],> 80 µM (inactive)
N#C/C(=C\c1ccc[nH]1)Sc1nc2ccccc2s1,EC50,[1],> 20 µM (not active)
same,EC50,[2],> 20 µM (not active)
Cc1nc2cc(-c3ccc(Cl)cc3)nn2c(C)c1CCC(=O)NC(C)c1ccc2c(c1)OCCO2 (stereo not drawn),EC50,[5],< 0.1 µM (active)
same,IC50,[4],> 80 µM (inactive)
same,EC50,[6],11.6 µM (active)
CCc1ccc(/C=C2/SC(=S)N(CCC(=O)Nc3cccnc3)C2=O)cc1,EC50,[7],12.8 µM (active)
same,EC50,BJ [8],2.88 µM (inconclusive)
same,EC50,BJ [9],> 150 µM (inconclusive)
same,EC50,BJ [10],> 66.7 µM (inactive)
same,EC50,[11],> 300 µM (inconclusive)
same,IC50,[4],> 80 µM (inactive)
same,EC50,[12],141 µM (active)
same,EC50,BJ [13],> 75 µM (inconclusive)
